This note sets out measurements from patent publication US10487071B2, “Bis-triazole compounds with anti-biofilm and anti-corrosion properties” (Université de Toulon, priority 2015, dated 2019).

Data set [1] concerns Pseudoalteromonas lipolytica (TC8). Put plainly: Anti-adhesion test, strain TC8. It counts as cell-based. Particulars: Pseudoalteromonas lipolytica; for activity at 200 µM: 15 h, read-out: % of adhesion at 200 μM, TC8; for EC50: read-out: EC50 (effective concentration to inhibit 50% of the adhesion), TC8. In short, it runs like this:
(§1)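 Stationary-phase bacteria grown in VNSS, diluted in artificial sea water and incubated about 15 h with compound at eight concentrations in triplicate, DMSO up to 2%. Adhered cells stained with SYTO 61 (1 μM). EC50 from a sigmoid fit of % inhibition against log concentration.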

Data set [2] concerns Paracoccus sp. (4M6). Put plainly: Anti-adhesion test, strain 4M6. Format: cell-based. Particulars: Paracoccus; for activity at 200 µM: 15 h, read-out: % of adhesion at 200 μM, 4M6; for EC50: read-out: EC50 (effective concentration to inhibit 50% of the adhesion), 4M6. A digest of the protocol:
as §1

Data set [3] relates to Pseudoalteromonas ulvae (TC14). Put plainly: Anti-adhesion test, strain TC14. It counts as cell-based. Particulars: for activity at 200 µM / EC50: Pseudoalteromonas ulvae; for activity at 200 µM: 15 h; for EC50: read-out: EC50 (effective concentration to inhibit 50% of the adhesion). In short, it runs like this: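 Stationary-phase TC14 cells grown in VNSS, diluted in artificial seawater and incubated with compound at eight concentrations in triplicate (DMSO ≤2%) for about 15 h. Non-adhered bacteria removed and adhered cells quantified by SYTO 61 (1 μM) staining. EC50 derived from sigmoid fit of % inhibition versus log concentration.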

Data set [4] deals with marine bacterial strains (TC14, TC8, 4M6, TC5 and TC11). Put plainly: Anti-adhesion test, summary over the strains. Format: cell-based. Particulars: for EC50 compared with TBTO/ZINEB: comparison with reference biocides. The method, then: (§2) Bacterial strains were grown on Väätänen nine-salts solution (VNSS). When the stationary phase was reached, the bacterial suspension was centrifuged. Cells were then diluted in sterile artificial sea water (ASW) and introduced in microtiter plates (sterile black PS; Nunc, Fisher Scientific, France) with the tested compound (at eight concentrations in three replicates) in the presence of three controls: (i) non-specific staining control, (ii) adhesion control, and (iii) positive control. The maximum percentage of solvent (DMSO 2%) used to dilute the tested compound was also tested in triplicate as additional control. After incubation during an optimized adhesion time (moderately 15 h), non-adhered bacteria were eliminated and adhered cells were quantified after SYTO 61 (1 μM) staining. A percentage of inhibition was calculated per well. A sigmoid dose-response curve was obtained by plotting the percentage of inhibition as a function of the log of tested compound concentration, after mean (n=3) and standard deviation (SD) calculation per triplicate for each concentration. EC50 values were then calculated for each compound.
(§3) In examples 64 and 65, the following marine bacterial strains are used.

The test system of data set [5] is Polaribacter sp. (TC5). Put plainly: Toxicity test, strain TC5. It counts as cell-based. Particulars: for CC50: read-out: LC50 (necessary concentration to kill 50% of the bacteria). The text has this: (§4) Polaribacter sp. (TC5) was isolated in June 2010 in the Military Harbor of Toulon (Mediterranean Sea, France) as described in F. Brian-Jaisson, A. Ortalo-Magné, L. Guentas-Dombrowsky, F. Armougom, Y. Blache, M. Molmeret, Microb. Ecol., 2014, 68, 94-110.

For data set [6], the system named is Pseudoalteromonas ulvae (TC14). Put plainly: Toxicity test, strain TC14. It counts as cell-based. From the text:
Pseudoalteromonas ulvae (TC14) was isolated in June 2010 in the Military Harbor of Toulon (Mediterranean Sea, France) as described in F. Brian-Jaisson, A. Ortalo-Magné, L. Guentas-Dombrowsky, F. Armougom, Y. Blache, M. Molmeret, Microb. Ecol., 2014, 68, 94-110.

In data set [7] the test system is Paracoccus sp. (4M6). Put plainly: microbe, parasite or virus in culture. Particulars: for CC50: Paracoccus, read-out: LC50 (necessary concentration to kill 50% of the bacteria), 4M6; for IS: LC50/EC50 (selectivity index), 4M6: strain 4M6. From the text:
(§5) The anti-adhesion bioassays and toxicity tests are adapted from those disclosed in M. Camps, J.-F. Briand, L. Guentas-Dombrowsky, G. Culioli, A. Bazire and Y. Blache, Mar. Poll.
(§6) After growth on VNSS, bacterial strains were harvested during the exponential phase. The microtiter plates (sterile transparent PS; Nunc, Fisher Scientific) were filled as described in the Anti-adhesion test method using VNSS instead of ASW to allow bacterial growth. The growth was followed by measuring the turbidity (OD600 nm) every hour during 6 or 7 hours. Then, resazurin (50 μM) was added in all the wells, and fluorescence was measured after 2 h to quantify the percent of bacterial viability. The same methodology used with SYTO 61 was applied to calculate a percent of viability after resazurin staining.

Data set [8] relates to Pseudoalteromonas lipolytica (TC8). Put plainly: microbe, parasite or virus in culture. The settings on record: for CC50: Pseudoalteromonas lipolytica, read-out: LC50 (necessary concentration to kill 50% of the bacteria), TC8; for IS: LC50/EC50 (selectivity index), TC8: strain TC8.
From the text: as §5, §6

Data set [9] deals with Polaribacter sp. (TC5). Put plainly: Anti-adhesion test, strain TC5. Format: cell-based. Particulars: for activity at 200 µM: 15 h; for EC50: read-out: EC50 (effective concentration to inhibit 50% of the adhesion). As to the method: as §2, §4
Data set [10] can be described thus: Gravimetry (weight loss), corrosion inhibition. The settings on record: mild steel in 1N HCl. In short, it runs like this: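 Mild steel coupons (2.5×2.0×0.1 cm) immersed in non-de-aerated 1N HCl without or with various inhibitor concentrations, then washed, dried and reweighed; duplicate runs. IE (%) calculated from corrosion rates without (CR^o) and with (CR) inhibitor.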

Data set [11] relates to marine bacterial strains (TC14, TC8, 4M6, TC5 and TC11). Put plainly: Toxicity test, summary over the strains. It counts as cell-based. Particulars: comparison with reference biocides.
From the text: as §3

Data set [12] deals with Shewanella sp. (TC11). Put plainly: Toxicity test, strain TC11. It counts as cell-based. The text has this: (§7) Shewanella sp. (TC11) was isolated in June 2010 in the Military Harbor of Toulon (Mediterranean Sea, France) as described in F. Brian-Jaisson, A. Ortalo-Magné, L. Guentas-Dombrowsky, F. Armougom, Y. Blache, M. Molmeret, Microb. Ecol., 2014, 68, 94-110.
Data set [13] has as its system Shewanella sp. (TC11). Put plainly: Anti-adhesion test, strain TC11. It counts as cell-based. The settings on record: for activity at 200 µM: 15 h; for EC50: read-out: EC50 (effective concentration to inhibit 50% of the adhesion), strain TC11. As to the method: as §2, §7
Where [14] appears, read: read-out: inhibition of the adhesion of at least two marine bacterial strains.
Where [15] appears, read: read-out: inhibition of the adhesion of at least four marine bacterial strains.

Where two headings read alike, the source gives them in different places. Bounds are passed on as bounds.

With `Oc1ccc(CCn2cc(CNCc3cn(CCc4ccc(O)c(Br)c4)nn3)nn2)cc1Br` [NT27], the activity at 200 µM stood at 28.9 ± 17% in [1], 27.8 ± 16.3% in data set [2] and 29.3 ± 7.5% in data set [3] (200 μM). The EC50 stood at 80.3 ± 18.9 µM in data set [1], 88.3 ± 46.2 µM in data set [2] and 59.9 ± 27.2 µM in data set [3]. Also, the inhibition at 200 µM in data set [4] (setting [14]) was ≥ 65%.

With `CN(C)CCOc1ccc(CCn2cc(-c3ccc(-c4cn(CCc5ccc(OCCN(C)C)c(Br)c5)nn4)cc3)nn2)cc1Br` [AS162, 2-(4-(2-(4-(4-(1-(4-(2-(dimethylamino)ethoxy)-3-bromophenethyl)-1H-1,2,3-triazol-4-yl)phenyl)-1H-1,2,3-triazol-1-yl)ethyl)-2-bromophenoxy)-N,N-dimethylethanamine], the activity at 200 µM turned out to be 14% in [1]; 10.9 ± 8.1% in [2]; 21.5 ± 6.6% in data set [9]; 0% in data set [3] (200 μM); 4.3 ± 7.5% in [13] (read-out: % of adhesion at 200 μM, TC11). For the same molecule, the EC50 in data set [1] came to 5.1 ± 1 µM; in [2] it was 5.1 ± 1.04 µM; in [9], 15.5 ± 0.1 µM; in data set [3] it was 0.97 ± 0.8 µM; in data set [13] it was 12.6 ± 5.1 µM. For the same molecule, the “IS: LC50/EC50 (selectivity index), TC5” value in data set [5] is recorded as 24.6. In addition, the CC50 was found to be 382 µM in [5], 97.6 µM in [7] and 66.1 µM in [8]. For the same molecule, the “IS: LC50/EC50 (selectivity index), TC14” value in [6] is 265.7. In data set [6], the “LC50 (necessary concentration to kill 50% of the bacteria), TC14” value amounted to 257.7 µM. Further, the “IS: LC50/EC50 (selectivity index), 4M6” value in data set [7] was found to be 19.2. In addition, the “IS: LC50/EC50 (selectivity index), TC8” value in data set [8] is 12.9. Moreover, the IE % in data set [10] (0.1 ppm) is recorded as 48.81%; in data set [10] (0.3 ppm), 93.35%; in [10] (0.5 ppm), 92.92%; in [10] (2 ppm), 97.73%; in [10] (10 ppm), 97.30%. Also, the “toxicity by LC50 values compared with TBTO/ZINEB” value in [11] is “less toxic than TBTO and ZINEB”. In addition, the “inhibition of the adhesion of bacterial strain TC14” value in [3] (200 μM) is “totally inhibit”. Moreover, the “IS: LC50/EC50 (selectivity index), TC11” value in [12] amounted to 26.5. Besides, in data set [12], the “LC50 (necessary concentration to kill 50% of the bacteria), TC11” value was determined as 334.3 µM. For the same molecule, the “EC50 compared with TBTO/ZINEB” value in [4] is “comparable to that of TBTO and lower than that of ZINEB”. For the same molecule, the inhibition at 200 µM in data set [4] (setting [15]) was ≥ 85%; in data set [4] (setting [14]), ≥ 65%.

Consider `Oc1ccc(CCn2cc(-c3ccc(-c4cn(CCc5ccc(O)c(Br)c5)nn4)cc3)nn2)cc1Br` [NT23, 1,4 bis (1-(3-bromo-4-hydroxyphenethyl)-1H-1,2,3-triazol-4-yl) benzene], for which the activity at 200 µM in data set [1] was 58.3 ± 8.7%; in data set [2], 31.8 ± 3.5%; in data set [3] (200 μM), 31 ± 6.1%. For the same molecule, the EC50 in data set [2] amounted to 59.9 ± 7.7 µM; in [3], 40.9 ± 11.4 µM. Moreover, the inhibition at 200 µM in data set [4] (setting [14]) was ≥ 65%.

Turning to `Oc1ccc(CCn2cc(-c3ccc(-c4cn(CCc5ccc(O)c(I)c5)nn4)cc3)nn2)cc1I` [SA43, 1,4 bis (1-(3-iodo-4-hydroxyphenethyl)-1H-1,2,3-triazol-4-yl) benzene], the activity at 200 µM in [1] stood at 10.5 ± 12%; in data set [2], 13.6 ± 8.9%; in [9], 23.8 ± 0.1%; in data set [3] (200 μM), 6.8 ± 1.2%; in data set [13] (200 μM, strain TC11, read-out: % of adhesion at 200 μM, TC11), 4.6 ± 0.1%. Also, the EC50 in [1] stood at 30.3 ± 31.3 µM; in [2], 53.8 ± 50.9 µM; in data set [9] it was 58 ± 1.61 µM; in data set [3], 20.7 ± 5.2 µM; in [13], 1.1 ± 0.6 µM. For the same molecule, the “IS: LC50/EC50 (selectivity index), TC5” value in data set [5] was found to be 5.5. In addition, the CC50 in data set [5] was determined as 320 µM; in data set [7], 352 µM; in data set [8] it was 270 µM. Also, in [6], the “IS: LC50/EC50 (selectivity index), TC14” value came out at 11.4. Moreover, the “LC50 (necessary concentration to kill 50% of the bacteria), TC14” value in data set [6] amounted to 236.9 µM. Further, the “IS: LC50/EC50 (selectivity index), 4M6” value in data set [7] stood at 6.5. The “IS: LC50/EC50 (selectivity index), TC8” value in [8] is 8.9. Moreover, the “toxicity by LC50 values compared with TBTO/ZINEB” value in data set [11] was “less toxic than ZINEB”. The “IS: LC50/EC50 (selectivity index), TC11” value in data set [12] was found to be 80.4. For the same molecule, the “LC50 (necessary concentration to kill 50% of the bacteria), TC11” value in data set [12] is 88.4 µM. In addition, the “EC50 compared with TBTO/ZINEB” value in data set [4] was “comparable to that of ZINEB”. The inhibition at 200 µM in [4] (setting [15]) was ≥ 85%; in [4] (setting [14]), ≥ 65%.

For `CN(C)CCOc1ccc(CCn2cc(COCc3cn(CCc4ccc(OCCN(C)C)c(Br)c4)nn3)nn2)cc1Br` [AS163, 2-(4-(2-(4-(((1-(4-(2-(dimethylamino)ethoxy)-3-bromophenethyl)-1H-1,2,3-triazol-4-yl)methoxy)methyl)-1H-1,2,3-triazol-1-yl)ethyl)-2-bromophenoxy)-N,N-dimethylethanamine], the values for the activity at 200 µM in data set [1], in [2] and in [3] (200 μM) were 34.6 ± 5.1%, 40.4 ± 7.8% and 34.8 ± 2.7%, respectively. The figures for the EC50 in [1], in [2] and in [3] were 102 ± 46.2 µM, 146 ± 81.9 µM and 91.8 ± 17.9 µM, respectively. Also, the IE % in data set [10] (0.1 ppm) is listed as 82.24%; in data set [10] (0.3 ppm), 89.36%; in [10] (0.5 ppm), 94.54%; in data set [10] (2 ppm), 96.52%; in data set [10] (10 ppm), 97.07%. Further, in data set [4] (setting [14]), the inhibition at 200 µM was ≥ 65%.
